Reference: publication PMC10220285, “Development of an assay pipeline for the discovery of novel small molecule inhibitors of human glutathione peroxidases GPX1 and GPX4” (Redox Biology, 2023)
Like-named read-outs stand apart in the source and are kept apart here.

Experiments:
Format in all cases: biochemical
human TXNRD1 = target: T1, human TXNRD1 (Homo sapiens, UniProt Q16881); test: Thioredoxin reductase 1 (TXNRD1) inhibition assay (selenite reduction); conditions: for inhibition of TXNRD1: Fig. 9 pan-selenoprotein inhibitors
T1 construct: made in house
T1 sequence (Q16881 1-499 isoform Q16881-5): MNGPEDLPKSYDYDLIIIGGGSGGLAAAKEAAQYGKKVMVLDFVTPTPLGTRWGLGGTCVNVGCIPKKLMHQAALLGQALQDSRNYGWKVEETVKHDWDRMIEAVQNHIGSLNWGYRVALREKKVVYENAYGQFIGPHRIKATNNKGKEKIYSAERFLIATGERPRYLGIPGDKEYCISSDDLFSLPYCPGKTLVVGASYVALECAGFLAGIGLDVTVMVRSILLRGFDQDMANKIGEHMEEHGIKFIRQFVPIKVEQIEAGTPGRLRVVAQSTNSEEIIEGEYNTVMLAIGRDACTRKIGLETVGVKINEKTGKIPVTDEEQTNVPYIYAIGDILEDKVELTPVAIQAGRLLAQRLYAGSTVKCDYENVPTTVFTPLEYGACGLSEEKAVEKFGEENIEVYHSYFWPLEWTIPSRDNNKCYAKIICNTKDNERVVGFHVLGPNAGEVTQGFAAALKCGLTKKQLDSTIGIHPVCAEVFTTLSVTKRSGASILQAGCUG
Protocol: (§1) The compound plates were prepared as described previously. Purified recombinant human GPX1, GPX2, GPX4, GR, and TXNRD1 were produced and purified as previously reported [[48], [49], [50]]. As production of GPX2 was not optimized at the onset of screening, only GPX1 and GPX4 underwent library screening, and GPX2 was used as a follow-up.
(§2) Follow-up and orthogonal assays were run in quadruplicate unless otherwise stated. Assay schemes are illustrated in Fig. 1.
TXNRD1 activity was assessed using a modified 1536-well TXNRD1 inhibition assay, based upon TXNRD1-catalyzed selenite reduction as previously described (Fig. 1D). […] TE buffer was dispensed into column 1 and 2 as a no-enzyme control. Finally, 1 μL of sodium selenite in TE buffer was dispensed into each well for final concentrations of 90 nM hTXNRD1, 0.4 mM NADPH, and 0.4 mM sodium selenite. The plate was read in a Viewlux multimodal detector in kinetic mode and fluorescence at 340 nm/450 nm was measured every minute for 8 min.
(§3) Percent activity was determined by first calculating delta RFU (decrease in fluorescence between t = 0 and t = 20/30 min in primary GPX, GR counter-screen, and TXNRD1 assays, or increase in fluorescence between t = 0 and t = 20 min in the Monobromobimane GPX endpoint assay), and normalizing enzyme activity using median delta RFU values for DMSO-treated enzyme control, and DMSO-treated no-enzyme controls.
(§4) Compound inhibitory activity in the qHTS assays was determined by plotting dose-response data for each sample and fitting with a four-parameter logistic fit to assess IC50 values, efficacy (maximal response), and AUC (area under the curve), as previously described. Hits were classified by the quality of the concentration-response curves (CRC). Curve classes −1.1 and −1.2 being the highest-confidence actives with complete CRCs and classes −2.1 and −2.2 being lower-confidence actives with incomplete CRCs.

human GPX2 = target: T2, human GPX2 (Homo sapiens, UniProt P18283); test: GPX2 activity assay (follow-up isoform specificity); conditions: for inhibition of GPX2: Fig. 9 pan-selenoprotein inhibitors
T2 construct: made in house
T2 sequence (P18283 1-190): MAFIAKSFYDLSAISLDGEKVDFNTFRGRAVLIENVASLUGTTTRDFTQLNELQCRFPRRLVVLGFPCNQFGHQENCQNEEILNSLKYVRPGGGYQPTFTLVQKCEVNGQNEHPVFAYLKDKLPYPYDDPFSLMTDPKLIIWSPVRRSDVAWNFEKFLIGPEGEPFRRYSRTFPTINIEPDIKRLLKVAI
Protocol: as §1, §2
Previous work has shown similarities in the substrate specificities of GPX1 and GPX2, and a more unique substrate profile of GPX4 [8].
The GPX2 isoform of human selenoprotein GPXs is found in epithelial cells and has similar substrate specificity with GPX1, but not as much with GPX4 [8]. Additionally, GPX1 and GPX2 both form homotetramers and share similarities in structural homology, although GPX2 has a much slower turnover rate.

GPX1 = target: T3, GPX1 (Homo sapiens, UniProt P07203); test: GR-coupled GPX1 activity assay (NADPH fluorescence, CHP substrate); conditions: for inhibition of GPX1: Fig. 9 pan-selenoprotein inhibitors
T3 construct: made in house; host or cells: E. coli
T3 sequence (P07203 1-203): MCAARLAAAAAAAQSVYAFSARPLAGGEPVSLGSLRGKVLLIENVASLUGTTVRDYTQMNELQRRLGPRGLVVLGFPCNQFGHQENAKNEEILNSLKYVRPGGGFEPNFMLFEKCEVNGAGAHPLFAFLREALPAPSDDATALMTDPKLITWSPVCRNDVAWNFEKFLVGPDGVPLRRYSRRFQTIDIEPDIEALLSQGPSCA
Protocol: as §1, §2
To measure GPX activity, assays were performed in 1536-well format in black medium-binding solid-bottom plates (Greiner). These assay conditions were optimized for high-throughput screening from an assay first described by Paglia and Valentine. GPX activity is measured indirectly by coupling the reaction with GR whereby GPX reduces hydroperoxide by oxidizing two GSH to GSSG and the oxidized glutathione is recycled to its reduced state by GR and NADPH (Fig. 1B). The rate of consumption of NADPH is directly proportional to the activity of GPX and can be measured by the decrease in fluorescence at 340 nm/450 nm.
First, 3 μL of enzyme in TES assay buffer (50 mM Tris-HCl, 2 mM EDTA (pH 7.5), 150 mM NaCl with enzyme [10 nM GPX1, 200 nM GPX4 ] and BSA [0.01%]) was added to columns 3–48 of 1536-well plates using a BioRAPTR Flying Reagent Dispenser (Let's Go Robotics (LGR), Carlsbad, CA). A no-enzyme control (0.01% BSA in TES assay buffer) was added to columns 1–2. Compounds (25 nL, library and DMSO controls) were added to each well with a pin tool (Kalypsys), and the plates were incubated for 30 min at room temperature before 1 μL of master mix (100 nM GR, 1 mM GSH, 0.5 mM NADPH in TES buffer) was added. 1 μL of cumene hydroperoxide (CHP) ([0.5 mM] in 50% EtOH) was then added within 5 min to initiate the reaction. Fluorescence at 340/450 nm was measured using a ViewLux multimodal detector (PerkinElmer, Waltham, MA) at initial t = 0 and endpoint t = 15 min (GPX1) or t = 20 min (GPX4).
Follow-up confirmation assays were also run in 96-well format using medium binding clear 96-well SpectraPlate microplates (PerkinElmer) and NADPH absorbance at 340 nm was measured every 30 s for 30 min using an Infinite® M Nano (Tecan).
as §3, §4

[1] = listed as 2,3-dimercaptopropanesulfonic acid

Compound | inhibition of TXNRD1 (human TXNRD1) | inhibition of TXNRD1 (human TXNRD1; [1]) | inhibition of GPX2 (human GPX2) | inhibition of GPX2 (human GPX2; [1]) | inhibition of GPX1 (GPX1) | inhibition of GPX1 (GPX1; [1]) | IC50 (human TXNRD1; IC50 of resulting CRC, Table 2, read-out: IC50 TrxR1) [µM] | IC50 (human GPX2; IC50 of resulting CRC, Table 2) [µM] | IC50 (GPX1; IC50 of resulting CRC, Table 2, read-out: IC50 GPx1) [µM] | IC50 (GPX1; assay validation, Fig. 2E, read-out: IC50, prior art GPX1 inhibitor activities in optimized assay) [µM] | IC50 (GPX1; compound present in the screening libraries (qHTS), read-out: IC50 GPX1, primary library screen) [µM] | IC50 (GPX1; initial tests comparing GR-coupled and mBBr assay formats, read-out: IC50 in the GR-coupled assay) [µM] | hit status in GPX1 qHTS (GPX1; primary library screen)
O=S(=O)(O)CC(S)CS (stereo not shown) [2,3-dimercaptopropanesulfonate] | inhibited all tested selenoproteins | inhibited all selenoproteins | inhibited all tested selenoproteins | inhibited all selenoproteins | inhibited all tested selenoproteins | inhibited all selenoproteins |  |  |  |  |  |  | 
CC(=O)OC[C@H]1O[C@@H]([S-])[C@H](OC(C)=O)[C@@H](OC(C)=O)[C@@H]1OC(C)=O.CCP(CC)CC.[Au+] [Auranofin] |  |  |  |  |  |  | 19 | 2.1 | 4.6 | 4.84 | 2.26 | 1.94 | high-quality active hit for GPX1 in all three
